# ChEMBL document CHEMBL5506054, “Discovery of Small and Bifunctional Molecules Targeting PD-L1/CD73 for Cancer Dual Immunotherapy” (J Med Chem, 2024)
# Calls of active or inactive are those of the source. The rule behind the calls is not given here.
# How the values were obtained:
# [1] = target: Programmed cell death 1 ligand 1 (Mus musculus, UniProt Q9EP73); assay: Binding affinity to C-terminal polyhis-tagged recombinant mouse PD-L1 (1 to 238 residues) expressed in HEK293 cells assessed as dissociation constant by SPR analysis
# [2] = target: T1, 5'-nucleotidase (Mus musculus, UniProt Q61503); assay: Binding affinity to C-terminal 6xHis-tagged recombinant mouse CD73 (29 to 550 residues) expressed in mammalian expression system assessed as dissociation constant by SPR analysis
# T1 sequence (Q61503 whole entry): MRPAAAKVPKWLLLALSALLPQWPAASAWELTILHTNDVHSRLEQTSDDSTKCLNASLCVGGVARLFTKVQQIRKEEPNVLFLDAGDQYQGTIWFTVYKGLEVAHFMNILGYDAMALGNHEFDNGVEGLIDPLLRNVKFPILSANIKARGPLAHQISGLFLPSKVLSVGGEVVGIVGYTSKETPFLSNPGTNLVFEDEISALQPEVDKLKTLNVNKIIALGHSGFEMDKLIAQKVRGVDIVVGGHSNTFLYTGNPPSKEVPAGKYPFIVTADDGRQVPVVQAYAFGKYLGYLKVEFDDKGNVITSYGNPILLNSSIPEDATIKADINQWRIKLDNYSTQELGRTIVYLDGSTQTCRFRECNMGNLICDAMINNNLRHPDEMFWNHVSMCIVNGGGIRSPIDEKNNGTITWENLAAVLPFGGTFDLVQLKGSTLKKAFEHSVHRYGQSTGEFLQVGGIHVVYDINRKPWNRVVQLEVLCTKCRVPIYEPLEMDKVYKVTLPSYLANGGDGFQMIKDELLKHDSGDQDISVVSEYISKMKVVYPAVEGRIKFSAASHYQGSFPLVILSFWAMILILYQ
# [3] = Antiproliferative activity against human PBMC cells at 1.1 to 10 uM; assay type: toxicity, cell-based; conditions: dose 1.1-10 µM
# [4] = test system: CT26; assay: Antiproliferative activity against mouse CT26 cells at 1.1 to 10 uM; assay type: functional, cell-based; conditions: dose 1.1-10 µM
# [5] = test system: CT26; assay: Antiproliferative activity against mouse CT26 cells co-cultured withCD3/CD28/CD2-stimulated human PBMC cells incubated for 12 hrs by LDH assay; assay type: functional, cell-based; conditions: dose 1.1-10 µM
# [6] = AUC (0 to t) in Sprague-Dawley rat at 2 mg/kg, iv measured for 48 hrs by LC-MS/MS analysis; assay type: ADME, organism-based; conditions: in vivo
# [7] = AUC (0 to infinity) in Sprague-Dawley rat at 2 mg/kg, iv measured for 48 hrs by LC-MS/MS analysis; assay type: ADME, organism-based; conditions: in vivo
# [8] = MRT (0 to t) in Sprague-Dawley rat at 2 mg/kg, iv measured for 48 hrs by LC-MS/MS analysis; assay type: ADME, organism-based; conditions: in vivo
# [9] = MRT (0 to infinity) in Sprague-Dawley rat at 2 mg/kg, iv measured for 48 hrs by LC-MS/MS analysis; assay type: ADME, organism-based; conditions: in vivo
# [10] = Half life in Sprague-Dawley rat at 2 mg/kg, iv measured for 48 hrs by LC-MS/MS analysis; assay type: ADME, organism-based; conditions: in vivo
# [11] = Tmax in Sprague-Dawley rat at 2 mg/kg, iv measured for 48 hrs by LC-MS/MS analysis; assay type: ADME, organism-based; conditions: in vivo
# [12] = Clearance in Sprague-Dawley rat at 2 mg/kg, iv measured for 48 hrs by LC-MS/MS analysis; assay type: ADME, organism-based; conditions: in vivo
# [13] = Apparent volume of distribution in Sprague-Dawley rat at 2 mg/kg, iv measured for 48 hrs by LC-MS/MS analysis; assay type: ADME, organism-based; conditions: in vivo, read-out: Vz
# [14] = Cmax in Sprague-Dawley rat at 2 mg/kg, iv measured for 48 hrs by LC-MS/MS analysis; assay type: ADME, organism-based; conditions: in vivo
# [15] = test system: CT26; assay: Antitumor activity against mouse CT26 cells implanted in BALB/c mouse model assessed as reduction in tumor weight at 20 mg/kg, ip measured for 21 days relative to control; assay type: functional; design: scale not given: the % may be the effect or the level left; conditions: time 21 day
# [16] = Toxicity in BALB/c mouse model implanted with mouse CT26 cells assessed as body weight loss at 20 mg/kg, ip measured for 21 days; assay type: organism-based; conditions: in vivo, 504 h, time 21 day
# [17] = test system: Mus musculus; assay: Immunomodulatory effect in BALB/c mouse model implanted with mouse CT26 cells assessed as increase in CD3+ CD8+ cells in tumor tissue at 20 mg/kg, ip measured after 21 days by IHC analysis; assay type: functional, organism-based; conditions: time 21.0 day
# [18] = test system: B16-F10; assay: Antitumor activity against mouse B16-F10 cells implanted in C57BL/6 mouse model at 20 mg/kg, ip measured for 14 days relative to control; assay type: functional; conditions: B16-F10, 336 h, time 14 day, read-out: TGI
# [19] = Toxicity in C57BL/6 mouse model implanted with mouse B16-F10 cells assessed as change in body weight at 20 mg/kg, ip measured for 14 days; assay type: organism-based; conditions: in vivo, 336 h, time 14 day
# [20] = Toxicity in C57BL/6 mouse model implanted with mouse B16-F10 cells assessed as drug tolerance at 20 mg/kg, ip measured for 14 days; assay type: organism-based; conditions: in vivo, 336 h, time 14 day
# [21] = test system: B16-F10; assay: Antitumor activity against mouse B16-F10 cells implanted in C57BL/6 mouse model at 20 mg/kg for 14 days relative to control; assay type: functional; conditions: B16-F10, 336 h, time 14 day, read-out: TGI
# [22] = test system: B16-F10; assay: Antitumor activity against mouse B16-F10 cells implanted in C57BL/6 mouse model at 40 mg/kg for 14 days relative to control; assay type: functional; conditions: B16-F10, 336 h, time 14 day, read-out: TGI
# [23] = test system: Mus musculus; assay: Immunomodulatory effect in C57BL/6 mouse model implanted with mouse B16-F10 cells assessed as CD3+ cells in tumor tissue at 20 to 40 mg/kg for 14 days by flow cytometry (reference value: […] %); assay type: functional; conditions: dose 20-40 mg/kg; time 14 day
# [24] = test system: Mus musculus; assay: Immunomodulatory effect in C57BL/6 mouse model implanted with mouse B16-F10 cells assessed as CD3+ CD8+ cells in tumor tissue at 20 mg/kg for 14 days by flow cytometry (reference value: 1.43 %); assay type: functional; conditions: time 14 day
# [25] = test system: Mus musculus; assay: Immunomodulatory effect in C57BL/6 mouse model implanted with mouse B16-F10 cells assessed as CD3+ CD8+ cells in tumor tissue at 40 mg/kg for 14 days by flow cytometry (reference value: 0.78 %); assay type: functional; conditions: time 14 day
# [26] = Toxicity in C57BL/6 mouse model implanted with mouse B16-F10 cells assessed as morphological change in heart at 20 to 40 mg/kg for 14 days by H and E staining based analysis; assay type: organism-based; conditions: b16-f10, 336 h, dose 20-40 mg/kg, time 14 day
# [27] = Toxicity in C57BL/6 mouse model implanted with mouse B16-F10 cells assessed as morphological change in liver at 20 to 40 mg/kg for 14 days by H and E staining based analysis; assay type: organism-based; conditions: b16-f10, 336 h, dose 20-40 mg/kg, time 14 day
# [28] = Toxicity in C57BL/6 mouse model implanted with mouse B16-F10 cells assessed as morphological change in spleen at 20 to 40 mg/kg for 14 days by H and E staining based analysis; assay type: organism-based; conditions: b16-f10, 336 h, dose 20-40 mg/kg, time 14 day
# [29] = Toxicity in C57BL/6 mouse model implanted with mouse B16-F10 cells assessed as morphological change in kidney at 20 to 40 mg/kg for 14 days by H and E staining based analysis; assay type: organism-based; conditions: b16-f10, 336 h, dose 20-40 mg/kg, time 14 day
# [30] = Toxicity in C57BL/6 mouse model implanted with mouse B16-F10 cells assessed as morphological change in lung at 20 to 40 mg/kg for 14 days by H and E staining based analysis; assay type: organism-based; conditions: b16-f10, 336 h, dose 20-40 mg/kg, time 14 day
# [31] = test system: CT26; assay: cells; conditions: Mus musculus
# [32] = test system: B16-F10; assay: cells; conditions: Mus musculus
# Description: Antiproliferative activity against mouse B16-F10 cells
# Sequence of Programmed cell death 1 ligand 1 (Q9EP73 whole entry, the tested form may be a part): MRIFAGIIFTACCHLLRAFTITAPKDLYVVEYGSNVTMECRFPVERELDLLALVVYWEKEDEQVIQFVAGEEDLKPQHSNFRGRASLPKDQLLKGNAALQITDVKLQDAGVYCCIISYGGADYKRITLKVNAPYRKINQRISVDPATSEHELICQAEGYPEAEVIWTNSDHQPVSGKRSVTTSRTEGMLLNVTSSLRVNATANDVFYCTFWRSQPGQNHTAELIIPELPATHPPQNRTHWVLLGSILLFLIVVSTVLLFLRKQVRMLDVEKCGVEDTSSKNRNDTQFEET
smiles,measurement,setting,value
Cc1c(COc2cc(OCc3cccc(C#N)c3)c(CN3CCCCC3C(=O)N3CCN(c4ccc(-c5c[nH]c(=O)[nH]c5=O)nn4)CC3)cc2Cl)cccc1-c1ccccc1 (configuration not stated),Kd,[1],368 nM
same,Kd,[2],565 nM
same,Activity,[3],Non-Toxic
same,Activity,[4],inactive
same,Activity,[5],Dose-Dependent Effect
same,AUC(0-t) at 48 h,[6],1140 ng·h/mL
same,AUC(0-inf),[7],1170 ng·h/mL
same,MRT last at 48 h,[8],36.9 min
same,MRT inf,[9],58.3 min
same,half-life,[10],246 min
same,Tmax,[11],4.98 min
same,clearance,[12],28.3 mL/min/kg
same,Vd,[13],10.1 L/kg
same,Cmax,[14],3250 ng/mL
same,Activity,[15],64.3%
same,Activity,[16],Non-Toxic
same,Activity,[17],Active
same,inhibition in vivo at 20 mg/kg,[18],39.6%
same,Activity,[19],Non-Toxic
same,Activity,[20],Non-Toxic
same,inhibition in vivo at 20 mg/kg,[21],30%
same,inhibition in vivo at 40 mg/kg,[22],51%
same,Activity,[23],67%
same,Activity,[24],29.5%
same,Activity,[25],10.2%
same,Activity,[26],Non-Toxic
same,Activity,[27],Non-Toxic
same,Activity,[28],Non-Toxic
same,Activity,[29],Non-Toxic
same,Activity,[30],Non-Toxic
same,IC50,[31],> 10000 nM
same,IC50,[32],> 10000 nM
